Assays:
[1] = target: T1, human enzyme NAMPT (full length) (Homo sapiens, UniProt P43490); test: NMN fluorescence biochemical assay (stimulation of NMN synthesis by NAMPT); conditions: for EC50: NMN fluorescence assay, purified human NAMPT 100 nM, concentration giving half-maximal activation, read-out: Enzymatic EC50; for Enzymatic Emax: fold change of maximal activation compared to DMSO
T1 construct: human enzyme NAMPT (full length)
How it was run: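 Full-length human NAMPT (100 nM) was preincubated 15 min at 37 °C with compound in 50 mM Tris-HCl pH 7.5, 10 mM MgCl2, 2 mM DTT, then reacted 1 h at 37 °C with 50 μM NAM, 100 μM PRPP, 4 mM ATP (stated solution concentrations). NMN was derivatised with acetophenone/KOH then formic acid and read at Ex/Em 382/445 nm; EC50 and Emax (fold over DMSO) reported.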

[2] = tested on: endogenous NAMPT in U2OS cells; test: Cellular NAD+ modulation assay (NAD/NADH-Glo, U2OS cells); format: cell-based; conditions: Homo sapiens, 24 hours incubation, cellular NAD+; for maximal fold induction: read-out: Cellular Emax
How it was run: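 NAD/NADH-Glo luminescence quantified NAD+ after acid treatment (60 °C, 15 min) and neutralization of DTAB lysates. Beforehand, U2OS cells seeded 16 h earlier received compound concentration series for 24 h at 37 °C. Values given as half-maximal activation concentration (EC50) and maximal fold change versus DMSO (Emax).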

T1 sequence (P43490 whole entry): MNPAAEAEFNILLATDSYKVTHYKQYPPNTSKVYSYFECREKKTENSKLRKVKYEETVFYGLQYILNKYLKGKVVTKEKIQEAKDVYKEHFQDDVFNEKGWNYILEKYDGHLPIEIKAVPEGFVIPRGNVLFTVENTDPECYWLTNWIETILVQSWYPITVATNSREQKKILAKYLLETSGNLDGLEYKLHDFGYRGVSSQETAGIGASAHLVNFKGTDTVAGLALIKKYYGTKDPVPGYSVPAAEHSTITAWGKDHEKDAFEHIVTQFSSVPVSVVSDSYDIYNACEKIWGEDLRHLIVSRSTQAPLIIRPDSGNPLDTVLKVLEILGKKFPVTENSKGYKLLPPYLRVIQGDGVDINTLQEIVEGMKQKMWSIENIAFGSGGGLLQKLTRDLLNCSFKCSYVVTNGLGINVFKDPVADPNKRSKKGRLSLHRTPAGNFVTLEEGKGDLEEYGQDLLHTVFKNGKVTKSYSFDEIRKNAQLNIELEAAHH

SMILES | EC50 [1] [µM] | Enzymatic Emax [1] | EC50 [2] [µM] | maximal fold induction [2]
CCn1ncc(Cl)c1CC1c2ccccc2C(=O)N1CC1CC2(CNC(=O)O2)C1 (stereo not drawn) [Compound 465, 2-((1-((4-chloro-1-ethyl-1H-pyrazol-5-yl)methyl)-3-oxoisoindolin-2-yl)methyl)-5-oxa-7-azaspiro[3.4]octan-6-one] | 0.5 to 5 | B (3≥B>2) | < 0.5 | > 1.5
Cn1c(CC2c3ccccc3C(=O)N2CC2CC3(CNC(=O)O3)C2)c(Cl)ccc1=O (stereo not drawn) [Compound 467, 2-((1-((3-chloro-1-methyl-6-oxo-1,6-dihydropyridin-2-yl)methyl)-3-oxoisoindolin-2-yl)methyl)-5-oxa-7-azaspiro[3.4]octan-6-one] | < 0.5 | B (3≥B>2) | < 0.5 | > 1.5
Cn1cnc(Cl)c1CC1c2ccccc2C(=O)N1CC1CC2(CNC(=O)O2)C1 (stereo not drawn) [Compound 468, 2-((1-((4-chloro-1-methyl-1H-imidazol-5-yl)methyl)-3-oxoisoindolin-2-yl)methyl)-5-oxa-7-azaspiro[3.4]octan-6-one] | 0.5 to 5 | B (3≥B>2) | 0.5 to 5 | > 1.5
O=C1NCC2(CC(CN3C(=O)c4ccccc4C3Cc3c(Cl)nc4sccn34)C2)O1 (stereo not drawn) [Compound 469, 2-((1-((6-chloroimidazo[2,1-b]thiazol-5-yl)methyl)-3-oxoisoindolin-2-yl)methyl)-5-oxa-7-azaspiro[3.4]octan-6-one] | 0.5 to 5 | B (3≥B>2) | < 0.5 | > 1.5
Cc1cccc2c1C(Cc1c(Cl)cnn1C)N(CC1CC3(CNC(=O)O3)C1)C2=O (stereo not drawn) [Compound 470, 2-((3-((4-chloro-1-methyl-1H-pyrazol-5-yl)methyl)-4-methyl-1-oxoisoindolin-2-yl)methyl)-5-oxa-7-azaspiro[3.4]octan-6-one] | ≥ 5 | B (3≥B>2) | 0.5 to 5 | > 1.5
O=C1NCC2(CC(CN3C(=O)c4ccccc4C3Cc3nnn(C4CC4)c3Cl)C2)O1 (stereo not drawn) [Compound 471, 2-((1-((5-chloro-1-cyclopropyl-1H-1,2,3-triazol-4-yl)methyl)-3-oxoisoindolin-2-yl)methyl)-5-oxa-7-azaspiro[3.4]octan-6-one] | 0.5 to 5 | B (3≥B>2) | < 0.5 | > 1.5
Cn1ncc(Cl)c1CC1c2cc(C3COC3)ccc2C(=O)N1CC1CC2(CNC(=O)O2)C1 (stereo not drawn) [Compound 473, 2-((3-((4-chloro-1-methyl-1H-pyrazol-5-yl)methyl)-5-(oxetan-3-yl)-1-oxoisoindolin-2-yl)methyl)-5-oxa-7-azaspiro[3.4]octan-6-one] | 0.5 to 5 | B (3≥B>2) | 0.5 to 5 | > 1.5
Cn1ncc(Cl)c1CC1c2cc(Cl)ccc2C(=O)N1CC1CC2(CNC(=O)O2)C1 (stereo not drawn) [Compound 474, 2-((5-chloro-3-((4-chloro-1-methyl-1H-pyrazol-5-yl)methyl)-1-oxoisoindolin-2-yl)methyl)-5-oxa-7-azaspiro[3.4]octan-6-one] | 0.5 to 5 | B (3≥B>2) | < 0.5 | > 1.5
O=C1c2ccccc2C(Cc2ncccc2Br)N1CCc1cn[nH]c1 (stereo not drawn) [Compound 475, 2-(2-(1H-pyrazol-4-yl)ethyl)-3-((3-bromopyridin-2-yl)methyl)isoindolin-1-one] | 0.5 to 5 | C (2≥C) | 0.5 to 5 | 1.2 to 1.5
O=C1NC(=O)C2(CC(CN3C(=O)c4ccccc4C3Cc3ncccc3Br)C2)O1 (stereo not drawn) [Compound 476, 2-((1-((3-bromopyridin-2-yl)methyl)-3-oxoisoindolin-2-yl)methyl)-5-oxa-7-azaspiro[3.4]octane-6,8-dione] | ≥ 5 | B (3≥B>2) | 5 to 50 | > 1.5
Cn1ncc(Cl)c1CC1c2ccccc2C(=O)N1CC#Cc1c[nH]nc1Cl (stereo not drawn) [Compound 477, 3-((4-chloro-1-methyl-1H-pyrazol-5-yl)methyl)-2-(3-(3-chloro-1H-pyrazol-4-yl)prop-2-yn-1-yl)isoindolin-1-one] | < 0.5 | B (3≥B>2) | < 0.5 | > 1.5
Cc1n[nH]cc1C#CCN1C(=O)c2ccccc2C1Cc1c(Cl)cnn1C (stereo not drawn) [Compound 478, 3-((4-chloro-1-methyl-1H-pyrazol-5-yl)methyl)-2-(3-(3-methyl-1H-pyrazol-4-yl)prop-2-yn-1-yl)isoindolin-1-one] | 0.5 to 5 | B (3≥B>2) | 0.5 to 5 | > 1.5
Cc1nn(C)c(C#N)c1CC1c2ccccc2C(=O)N1CC1CC2(CNC(=O)O2)C1 (stereo not drawn) [Compound 479, 1,3-dimethyl-4-((3-oxo-2-((6-oxo-5-oxa-7-azaspiro[3.4]octan-2-yl)methyl)isoindolin-1-yl)methyl)-1H-pyrazole-5-carbonitrile] | 0.5 to 5 | B (3≥B>2) | < 0.5 | > 1.5
Cn1ccc(Cl)c(CC2c3ccccc3C(=O)N2CC2CC3(CNC(=O)O3)C2)c1=O (stereo not drawn) [Compound 480, 2-((1-((4-chloro-1-methyl-2-oxo-1,2-dihydropyridin-3-yl)methyl)-3-oxoisoindolin-2-yl)methyl)-5-oxa-7-azaspiro[3.4]octan-6-one] | < 0.5 | B (3≥B>2) | < 0.5 | > 1.5
Cc1ccn(C)c(=O)c1CC1c2ccccc2C(=O)N1CC1CC2(CNC(=O)O2)C1 (stereo not drawn) [Compound 481, 2-((1-((1,4-dimethyl-2-oxo-1,2-dihydropyridin-3-yl)methyl)-3-oxoisoindolin-2-yl)methyl)-5-oxa-7-azaspiro[3.4]octan-6-one] | 0.5 to 5 | B (3≥B>2) | 0.5 to 5 | > 1.5
Cn1ncc(Cl)c1CC1c2ccccc2C(=S)N1CC1CC2(CNC(=O)O2)C1 (stereo not drawn) [Compound 482, 2-((1-((4-chloro-1-methyl-1H-pyrazol-5-yl)methyl)-3-thioxoisoindolin-2-yl)methyl)-5-oxa-7-azaspiro[3.4]octan-6-one] | < 0.5 | B (3≥B>2) | < 0.5 | > 1.5
Cn1ncc(Cl)c1CC1c2ccccc2C(=O)N1C[C@H]1C[C@@]2(CNC(=O)O2)C1 (stereo partly drawn) [Compound 483, (2r,4r)-2-((1-((4-chloro-1-methyl-1H-pyrazol-5-yl)methyl)-3-oxoisoindolin-2-yl)methyl)-5-oxa-7-azaspiro[3.4]octan-6-one] | 0.5 to 5 | B (3≥B>2) | < 0.5 | 1.2 to 1.5
CN1CCn2c(cc(Cl)c2CC2c3ccccc3C(=O)N2CC2CC3(CNC(=O)O3)C2)C1 (stereo not drawn) [Compound 484, 2-((1-((7-chloro-2-methyl-1,2,3,4-tetrahydropyrrolo[1,2-a]pyrazin-6-yl)methyl)-3-oxoisoindolin-2-yl)methyl)-5-oxa-7-azaspiro[3.4]octan-6-one] | 0.5 to 5 | B (3≥B>2) | < 0.5 | 1.2 to 1.5

From patent US20260078130A1, “NAMPT MODULATORS, PREPARATIONS, AND USES THEREOF” (SIRONAX LTD., priority 2022, published 2026)
